The text below walks through data of patent US12157749B2, “Borate-based drug and use thereof” (Chengdu Origin Biotechnology Limited Company, priority 2018, dated 2024).

Experiment [1] has as its system transplantation tumor of human multiple myeloma MM.1S. Briefly: Transplantation tumor model of human multiple myeloma cells MM.1S in CB17-SCID mouse, low dose 0.00554 mmol/kg (Activity Experiment Example 4). The class given is in vivo. The conditions noted are these: for inhibition of tumor growth (in words) / inhibitory effect on tumor growth compared with other test samples / inhibitory effect sequence on transplantation tumor growth from strong to weak / area under the curve of tumor volume vs. time curve, ascending sequence / tumor weight (g) / tumor inhibition rate (%) / onset time / effective time of controlling tumor growth (in words): 0.00554 mmol/kg oral gavage; for area under the curve of tumor volume vs. time curve, ascending sequence: FIG. 2; for tumor weight (g): X ± SD, tumor dissected at end of experiment; for tumor weight (g) / tumor inhibition rate (%): five doses; for Relative tumor proliferation rate T/C(%): 0.00554 mmol/kg oral gavage twice a week; for tumor inhibition rate (%): from tumor weight at end of experiment. Here is the method: The model used in this experiment was the transplantation tumor model of human multiple myeloma cells line MM.1S in CB17-SCID mouse. Cryopreserved MM.1S cells were cultured in vitro conventionally after resuscitation. The cells were collected in logarithmic growth phase and diluted with serum-free culture medium or PBS to form a tumor cell suspension with a concentration of 5×10^7/ml. The tumor cell suspensions prepared above were taken with a 1 ml syringe and injected subcutaneously into the left armpit backrest side of the mouse, and 0.2 ml was injected into each inoculation site. About 1 to 2 weeks after the cultured tumor cells were injected into the CB17-SCID mouse, the tumors were touched under the armpit. When the tumor volume was more than 100 mm^3, the tumor volume was measured and calculated, and the mice were randomly divided into groups according to the tumor volume. The administration doses of different test samples were equivalent doses on a molar basis with a specific dose of 0.00554 mmol/kg. Administration mode and frequency: the test samples were administered by oral gavage with a volume of 10 ml/kg. The model group was given equal volume of solvent. The test samples were administered twice a week for five times with an administration dose of 0.00554 mmol/kg, i.e., the dose of MLN9708 being 2.86 mg/kg, the dose of the compound 6q being 2.77 mg/kg, the dose of the compound 6f being 2.80 mg/kg, and the dose of the compound 6b being 3.02 mg/kg, for a duration of 17 days. The administration was conducted on the 1st, 5th, 8th, 12th and 15th day, and the experiment was finished on the 17th day. The mental state, activity, eating and other general conditions of mice were observed every day, and the weight was measured twice a week. The short diameter (a) and long diameter (b) of each mouse tumor were measured with a vernier caliper twice a week, and the tumor volume was calculated according to formula (a^2×b)/2. The relative tumor volume (RTV) was calculated according to the measured tumor volume, RTV=Vt/V0. Wherein, V0 was the tumor volume when random grouping (i.e. d0) and Vt was the tumor volume at each measurement (i.e. […]). According to the following formula, evaluation index of anti-tumor activity relative to the relative tumor proliferation rate T/C (%) was calculated: Note: TRTV is RTV of treatment group, and CRTV is RTV of model control group. According to “Technical Guidelines for Non-clinical Research of Cytotoxic Antitumor Drugs” issued by State Food and Drug Administration in China, the evaluation standard is T/C %≤40%, and after statistics procession, p<0.05 is considered significant. On the 19th day, after the tumor was weighted and measured, the mice in each group were killed, and the tumor was dissected and weighed. According to the tumor weight, the tumor inhibition rate (TGI) was calculated, TGI=((average tumor weight of model group−average tumor weight of administration group)/average tumor weight of model group)×100%.

Experiment [2] shares this test system. Briefly: Transplantation tumor model of human multiple myeloma cells MM.1S in CB17-SCID mouse, dose 0.00831 mmol/kg (Activity Experiment Example 2). The conditions noted are these: for tumor weight (g): X ± SD, tumor dissected on day 19; for tumor weight (g) / tumor inhibition rate (%): five doses; for Relative tumor proliferation rate T/C(%): 0.00831 mmol/kg oral gavage twice a week; for tumor inhibition rate (%): from tumor weight. The format is in vivo. On the procedure:
The model used in this experiment was the transplantation tumor model of human multiple myeloma cells line MM.1 S in CB17-SCID mouse (purchased from Beijing Weitong Lihua Experimental Animal Technology Co., Ltd.). Cryopreserved MM.1S cells were cultured in vitro by conventionally way after resuscitation. The cells were collected in logarithmic growth phase and diluted with serum-free culture medium or PBS to form a tumor cell suspension with a concentration of 5×10^7/ml. The tumor cell suspensions prepared above were taken with a 1 ml syringe and injected subcutaneously into the left armpit backrest side of the mouse, and 0.2 ml was injected into each inoculation site. About 1 to 2 weeks after the cultured tumor cells were injected into CB17-SCID mouse, the tumors were touched under the armpit. When the tumor volume was more than 100 mm^3, the tumor volume was measured and calculated, and the mice were randomly divided into groups according to the tumor volume. The administration doses of different test samples were equivalent doses on a molar basis with a specific dose of 0.00831 mmol/kg. Administration mode and frequency: The test samples were administered by oral gavage with a volume of 10 ml/kg. The model group was given equal volume of solvent. The test samples were administered twice a week for five times (with administration dose of 0.00831 mmol/kg, i.e., the dose of MLN9708 being 4.30 mg/kg, the dose of the compound 6a being 4.67 mg/kg, and the dose of the compound 6b being 4.53 mg/kg) for a duration of 19 days. The administration was conducted on the 1st, 4th, 8th, 11th and 15th day, and the experiment was finished on the 19th day. The mental state, activity, eating and other general conditions of mice were observed every day, and the weight was measured twice a week. The short diameter (a) and long diameter (b) of each mouse tumor were measured with vernier caliper twice a week, and the tumor volume was calculated according to formula (a^2×b)/2. The relative tumor volume (RTV) was calculated according to the measured tumor volume, RTV=Vt/V0. Wherein, V0 was the tumor volume when random grouping (i.e. d0) and Vt was the tumor volume at each measurement (i.e. dn). According to the following formula, evaluation index of anti-tumor activity, the relative tumor proliferation rate T/C (%), was calculated: Note: TRTV is RTV of treatment group, and CRTV is RTV of model control group. Efficacy evaluation standard is T/C %≤40%, and after statistics procession, p<0.05 is considered significant. On the 19th day, after the tumor was weighted and measured, the mice in each group were killed, and the tumor was dissected and weighed. According to the tumor weight, the tumor inhibition rate (TGI) was calculated, TGI=((average tumor weight of model group−average tumor weight of administration group)/average tumor weight of model group)×100%.

The mark [3] stands for this setting: day 19, 0.00831 mmol/kg oral gavage.

Several values for one entry are separate records, joined by “and”; a condition that tells them apart may be missing. Identical values can stand only once. Entries after “also recorded” stand apart in the source; their conditions may differ. Marks after values point to notes of the source that are not given here.

Consider `CC(C)C[C@H](NC(=O)CNC(=O)c1cc(Br)ccc1F)B1OC(=O)C(CC(=O)O)(CC(=O)O)O1` [Compound 6b, (R)-2,2′-(2-(1-(2-(2-fluoro-5-bromo-benzoylamino)acetylamino)-3-methylbutyl)-5-oxo-1,3,2-dioxaborolan-4,4-diyl)diacetic acid], for which the “inhibition of tumor growth (in words)” value in experiment [1] and in experiment [2] (0.00831 mmol/kg oral gavage) was “can significantly inhibit tumor growth” throughout. Also, the “inhibitory effect on tumor growth compared with other test samples” value in experiment [1] is “significantly stronger inhibitory effect on tumor growth than MLN9708(p<0.01); also recorded: has the fastest effect on tumor growth and has the strongest inhibitory activity”. Further, the “inhibitory effect sequence on transplantation tumor growth from strong to weak” value (shortened to “inhibitory effect sequence”) in experiment [1] came to 6b>6f>6q>MLN9708. Besides, in experiment [1], the “area under the curve of tumor volume vs. time curve, ascending sequence” value is “compound 6b<compound 6f<compound 6q”. Further, the “tumor weight (g)” value was 0.360 ± 0.415^★★▴▴ g in experiment [1] and 0.063 ± 0.072^★★ g in experiment [2] (0.00831 mmol/kg oral gavage). The “Relative tumor proliferation rate T/C(%)” value in experiment [1] (day 5) is given as 18%; in experiment [1] (day 8), 5.86^▴▴ %; in experiment [1] (day 12), 9.04%; in experiment [1] (day 15), 10.59^▴▴ %; in experiment [1] (day 17), 9.06^▴▴ %; in experiment [2] (day 4), 48.84^▴ %. The “Relative tumor proliferation rate T/C(%)” value in experiment [2] (day 8) is 4.3^▴▴ %; in experiment [2] (day 11), 1.75^▴▴ %; in experiment [2] (day 15), 1.12^▴▴ %; in experiment [2] (day 19), 0.5^▴▴ %. In addition, the “tumor inhibition rate (%)” value in experiment [1] was found to be 87.75%; in experiment [2] (setting [3]), 98.26%. In experiment [2] (0.00831 mmol/kg oral gavage), the “inhibitory effect on tumor growth compared with MLN9708 and compound 6a” value is “significantly stronger inhibitory effect on tumor growth than MLN9708(p<0.01) and the compound 6a(p<0.01)”. Also, the “inhibitory effect on tumor growth compared with compound 6c” value in experiment [2] (same method and procedure, data not shown) is given as “significantly stronger inhibitory effect on tumor growth of the transplantation tumor of human multiple myeloma MM.1S in SCID mouse than that of the compound 6c”.

For `CC(C)C[C@H](NC(=O)CNC(=O)c1cc(Br)ccc1F)B1OC(=O)C(c2ccccc2)O1` (stereo partly drawn) [Compound 6f, 2-fluoro-5-bromo-N-[2-({(1R)-3-methyl-1-[4-oxo-5-phenyl-1,3,2-dioxaborolan-2-yl]butyl}amino)-2-oxoethyl]benzamide], in experiment [1], the “inhibition of tumor growth (in words)” value is on record as “can also significantly inhibit tumor growth”, the “inhibitory effect on tumor growth compared with other test samples” value is listed as “the inhibitory effect is weaker than that of compound 6b; also recorded: its inhibitory activity is weaker than that the compound of 6b”, the “inhibitory effect sequence” value is 6b>6f>6q>MLN9708 and the “onset time / effective time of controlling tumor growth (in words)” value was “longer onset time to control tumor growth than that of the compound 6b”. In addition, in experiment [1], the “area under the curve of tumor volume vs. time curve, ascending sequence” value is on record as “compound 6b<compound 6f<compound 6q”; the “tumor weight (g)” value was 0.741 ± 0.917^★★▴▴ g; the “tumor inhibition rate (%)” value is 74.82%. Further, the “Relative tumor proliferation rate T/C(%)” value in experiment [1] (day 8) is on record as 43.49^▴▴● %. In addition, the “Relative tumor proliferation rate T/C(%)” value in experiment [1] (day 12) is 31.17%. In addition, the “Relative tumor proliferation rate T/C(%)” value in experiment [1] (day 15) is 30.15^▴▴ %. The “Relative tumor proliferation rate T/C(%)” value in experiment [1] (day 17) is on record as 22.86^▴▴ %.

For `CC(C)C[C@H](NC(=O)CNC(=O)c1cc(Cl)ccc1F)B1OC(=O)C(CC(=O)O)(CC(=O)O)O1` [Compound 6q, (R)-2,2′-(2-(1-(2-(2-fluoro-5-chloro-benzoylamino)acetylamino)-3-methylbutyl)-5-oxo-1,3,2-dioxaborolan-4,4-diyl)diacetic acid], in experiment [1], the “inhibition of tumor growth (in words)” value was “can also significantly inhibit tumor growth”; the “inhibitory effect on tumor growth compared with other test samples” value was “the inhibitory effect is weaker than that of compound 6b”; the “inhibitory effect sequence” value worked out at 6b>6f>6q>MLN9708; the “onset time / effective time of controlling tumor growth (in words)” value is “the effective time of controlling tumor growth was longer than the 6f group and significantly longer than the 6b group”. In addition, in experiment [1], the “area under the curve of tumor volume vs. time curve, ascending sequence” value is recorded as “compound 6b<compound 6f<compound 6q”; the “tumor weight (g)” value is given as 0.945 ± 0.603^★★▴▴● g; the “tumor inhibition rate (%)” value came out at 67.85%. Besides, the “Relative tumor proliferation rate T/C(%)” value in experiment [1] (day 8) was 47.34^▴▴●● %. Also, the “Relative tumor proliferation rate T/C(%)” value in experiment [1] (day 12) is 67.42% and 67.42^▴▴● %. Further, in experiment [1] (day 15), the “Relative tumor proliferation rate T/C(%)” value was 45.35^▴▴ %. Besides, the “Relative tumor proliferation rate T/C(%)” value in experiment [1] (day 17) was 29.00% and 29.20^▴▴ %.

Take `CC(C)C[C@H](NC(=O)CNC(=O)c1cc(Br)ccc1Cl)B1OC(=O)C(CC(=O)O)(CC(=O)O)O1` [Compound 6a, (R)-2,2′-(2-(1-(2-(2-chloro-5-bromo-benzoylamino)acetylamino)-3-methylbutyl)-5-oxo-1,3,2-dioxaborolan-4,4-diyl)diacetic acid]: in experiment [2] (0.00831 mmol/kg oral gavage), the “tumor weight (g)” value is 2.471 ± 0.598^★★▴▴ g. Further, the “Relative tumor proliferation rate T/C(%)” value is 87.94% in experiment [2] (day 4); 69.95% in experiment [2] (day 8); 88.41^▴ % in experiment [2] (day 11); 94.56^▴ % in experiment [2] (day 15); 80.45% in experiment [2] (day 19). Besides, the “tumor inhibition rate (%)” value in experiment [2] (setting [3]) was found to be 31.63%.
